The values that follow are results of earlier work, collected in US20100247552A1, “PAK MODULATORS” (MASSACHUSETTS INSTITUTE OF TECHNOLOGY, priority 2006, published 2010).

The structures appear in SMILES notation.

In general, IC50 refers to the concentration that inhibits the measured activity by half.

Series [1] concerns the target T1, PAK4 (Homo sapiens, UniProt O96013).
Series [2] has as its target T2, PAK5 (Homo sapiens, UniProt Q9P286).
Series [3] deals with T3, PAK6 (Homo sapiens, UniProt Q9NQU5).
Series [4] concerns the target T1, PAK4. To be noted: 10 μM compound.
Series [5] has as its target T2, PAK5. To be noted: 10 μM compound.
The target in series [6] is T3, PAK6. To be noted: 10 μM compound.
Series [7] deals with human cancer cell migration. The settings on record: 40 μM; interferes with formation of active Cdc42/Rac1 and PAK complex.
The conditions of series [8]: solvents.
In another series the test system is PAK. The settings on record: probably competitive inhibition of ATP binding; units printed within the value (nM and μM); read-out: IC50 for inhibition of PAK kinase activity.

T2 sequence (Q9P286 whole entry): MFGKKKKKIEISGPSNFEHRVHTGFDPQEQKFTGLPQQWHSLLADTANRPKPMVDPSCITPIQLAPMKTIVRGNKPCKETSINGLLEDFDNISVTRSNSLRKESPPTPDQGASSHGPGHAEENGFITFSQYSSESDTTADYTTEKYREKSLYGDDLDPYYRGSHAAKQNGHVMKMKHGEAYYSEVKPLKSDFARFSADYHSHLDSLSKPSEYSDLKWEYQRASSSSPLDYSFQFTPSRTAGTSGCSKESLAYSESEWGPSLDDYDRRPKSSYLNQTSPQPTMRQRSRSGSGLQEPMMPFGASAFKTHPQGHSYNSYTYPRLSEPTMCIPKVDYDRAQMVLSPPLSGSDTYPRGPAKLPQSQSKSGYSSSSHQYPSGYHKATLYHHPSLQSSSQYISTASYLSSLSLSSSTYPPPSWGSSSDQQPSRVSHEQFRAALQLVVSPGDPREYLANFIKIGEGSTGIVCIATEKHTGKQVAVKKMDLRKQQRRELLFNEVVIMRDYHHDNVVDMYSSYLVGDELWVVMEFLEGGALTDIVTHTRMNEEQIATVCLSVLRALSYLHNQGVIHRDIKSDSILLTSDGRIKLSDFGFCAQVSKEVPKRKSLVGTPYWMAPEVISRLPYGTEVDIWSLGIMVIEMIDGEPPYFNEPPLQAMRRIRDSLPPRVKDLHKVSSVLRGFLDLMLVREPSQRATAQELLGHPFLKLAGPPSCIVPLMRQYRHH
T1 sequence (O96013 291-591 limits assumed): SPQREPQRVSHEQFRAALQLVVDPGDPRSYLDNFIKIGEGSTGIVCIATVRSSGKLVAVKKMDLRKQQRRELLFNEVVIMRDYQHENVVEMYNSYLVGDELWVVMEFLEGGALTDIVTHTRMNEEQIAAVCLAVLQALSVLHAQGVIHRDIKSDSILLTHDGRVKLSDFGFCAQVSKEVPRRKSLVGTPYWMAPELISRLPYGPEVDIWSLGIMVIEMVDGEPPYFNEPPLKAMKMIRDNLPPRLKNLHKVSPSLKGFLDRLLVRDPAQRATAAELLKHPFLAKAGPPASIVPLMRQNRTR
T3 sequence (Q9NQU5 whole entry): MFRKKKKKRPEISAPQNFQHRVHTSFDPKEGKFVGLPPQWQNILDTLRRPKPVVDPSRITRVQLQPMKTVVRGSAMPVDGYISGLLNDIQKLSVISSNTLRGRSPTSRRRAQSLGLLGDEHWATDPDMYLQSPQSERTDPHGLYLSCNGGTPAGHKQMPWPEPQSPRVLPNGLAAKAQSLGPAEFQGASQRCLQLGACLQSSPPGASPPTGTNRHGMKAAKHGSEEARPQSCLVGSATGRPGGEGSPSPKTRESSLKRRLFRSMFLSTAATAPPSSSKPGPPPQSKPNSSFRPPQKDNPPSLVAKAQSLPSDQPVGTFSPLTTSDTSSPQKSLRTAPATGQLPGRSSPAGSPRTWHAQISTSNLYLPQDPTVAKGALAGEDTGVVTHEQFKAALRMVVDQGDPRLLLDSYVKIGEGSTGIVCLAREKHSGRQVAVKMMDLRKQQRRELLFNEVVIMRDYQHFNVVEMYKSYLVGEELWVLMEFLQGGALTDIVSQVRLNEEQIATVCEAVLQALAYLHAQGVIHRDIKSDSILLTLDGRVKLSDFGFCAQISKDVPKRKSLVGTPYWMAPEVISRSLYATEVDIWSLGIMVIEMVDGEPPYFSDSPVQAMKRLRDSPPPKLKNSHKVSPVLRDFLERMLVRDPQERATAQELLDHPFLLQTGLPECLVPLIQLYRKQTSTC

For the compound `C[C@]12OC(C[C@]1(O)C(=O)O)n1c3ccccc3c3c4c(c5c6ccccc6n2c5c31)CNC4=O` [K252a], the “Tm Shift PAK4” value on PAK4 [1] is 4.5 ± 0.3 °C. For the same compound, the “Tm Shift PAK5” value on PAK5 [2] is 5.9 ± 0.3 °C. Besides, the “Tm Shift PAK6” value on PAK6 [3] was 8.6 ± 1.0 °C. For the same compound, on PAK4 [4], the “% Activity at 10 μM PAK4” value is 16%. On PAK5 [5], the “% Activity at 10 μM PAK5” value is recorded as 22%. The “% Activity at 10 μM PAK6” value on PAK6 [6] is on record as 16%.

`CCn1cnc2c(Nc3cccc(Cl)c3)nc(NC3CCCCC3N)nc21` (stereo not drawn) [Cdkl Inhibitor]: the “Tm Shift PAK4” value on PAK4 [1] is 7.0 ± 1.5 °C. Moreover, the “Tm Shift PAK5” value at PAK5 [2] was 7.1 ± 0.3 °C. Moreover, the “Tm Shift PAK6” value at PAK6 [3] is 7.0 ± 0.3 °C. The “% Activity at 10 μM PAK4” value on PAK4 [4] is on record as 56%. The “% Activity at 10 μM PAK5” value on PAK5 [5] is listed as 12%. Further, on PAK6 [6], the “% Activity at 10 μM PAK6” value is given as 23%.

For the compound `Cc1cc(O)c2c(c1)C(=O)c1cc(O)cc(O)c1C2=O` [Emodin, 1,3,8-Tri-hydroxy-6-methyl-anthra-quinone], the “Effect on human cancer cell migration” value in series [7] is on record as “inhibits human cancer cell migration”. Besides, in [8], the Solubility entry is “soluble in DMSO, ethanol, or 1 N dilute aqueous ammonia”.

Take `Nc1nc(Nc2ccc(S(N)(=O)=O)cc2)nn1C(=S)Nc1c(F)cccc1F` [Cdk 1/2 Inhibitor III]: at PAK4 [1], the “Tm Shift PAK4” value was 6.5 ± 0.2 °C. The “Tm Shift PAK5” value on PAK5 [2] is 5.6 ± 0.3 °C. For the same compound, the “Tm Shift PAK6” value at PAK6 [3] is 5.6 ± 0.8 °C. The “% Activity at 10 μM PAK4” value at PAK4 [4] is 62%. Further, the “% Activity at 10 μM PAK5” value on PAK5 [5] is on record as 7.0%. Also, on PAK6 [6], the “% Activity at 10 μM PAK6” value is given as 18%.

Consider `CCN(CC)CCNC(=O)c1c(C)[nH]c(/C=C2\C(=O)Nc3ccc(Cl)cc32)c1C` [SU11652], for which the “Tm Shift PAK4” value at PAK4 [1] was 6.4 ± 1.2 °C. For the same compound, the “Tm Shift PAK5” value on PAK5 [2] is 5.3 ± 0.2 °C. On PAK6 [3], the “Tm Shift PAK6” value is 5.3 ± 0.3 °C. Besides, the “% Activity at 10 μM PAK4” value on PAK4 [4] is 34%. In addition, the “% Activity at 10 μM PAK5” value on PAK5 [5] is 43%. For the same compound, the “% Activity at 10 μM PAK6” value at PAK6 [6] is 75%.

As to `NCC(=O)Nc1ccc(-n2nc(C(F)(F)F)cc2-c2ccc3c(ccc4ccccc43)c2)cc1` [OSU-03012, 2-amino-N-{4-[5-(2-phenanthrenyl)-3-(trifluoromethyl)-1H-pyrazol-1-yl]-phenyl}acetamide], the IC50 in the series with PAK is 500 to 1000 nM. The Solubility entry in series [8] was “soluble in organic solvents such as DMSO, ethanol, and DMF”.

Take `CN[C@@H]1C[C@H]2O[C@@](C)([C@@H]1OC)n1c3ccccc3c3c4c(c5c6ccccc6n2c5c31)C(=O)NC4` [Staurosporine]: at PAK5 [5], the “% Activity at 10 μM PAK5” value is listed as 0%. In addition, at PAK6 [6], the “% Activity at 10 μM PAK6” value was 0%.
